The results in this text go back to US20250197372A1 (priority 2020, published 2025).

Type in all cases: biochemical
Test [1] concerns the target T1, recombinant alpha-glucosidase I (human full-length glucosidase I, Glu 1) (Homo sapiens, UniProt Q13724).
T1 construct: 6-His (C); made in house; host or cells: HEK-293T cells transduced with BacMam virus (virus raised in Sf9)
T1 sequence (Q13724 1-837): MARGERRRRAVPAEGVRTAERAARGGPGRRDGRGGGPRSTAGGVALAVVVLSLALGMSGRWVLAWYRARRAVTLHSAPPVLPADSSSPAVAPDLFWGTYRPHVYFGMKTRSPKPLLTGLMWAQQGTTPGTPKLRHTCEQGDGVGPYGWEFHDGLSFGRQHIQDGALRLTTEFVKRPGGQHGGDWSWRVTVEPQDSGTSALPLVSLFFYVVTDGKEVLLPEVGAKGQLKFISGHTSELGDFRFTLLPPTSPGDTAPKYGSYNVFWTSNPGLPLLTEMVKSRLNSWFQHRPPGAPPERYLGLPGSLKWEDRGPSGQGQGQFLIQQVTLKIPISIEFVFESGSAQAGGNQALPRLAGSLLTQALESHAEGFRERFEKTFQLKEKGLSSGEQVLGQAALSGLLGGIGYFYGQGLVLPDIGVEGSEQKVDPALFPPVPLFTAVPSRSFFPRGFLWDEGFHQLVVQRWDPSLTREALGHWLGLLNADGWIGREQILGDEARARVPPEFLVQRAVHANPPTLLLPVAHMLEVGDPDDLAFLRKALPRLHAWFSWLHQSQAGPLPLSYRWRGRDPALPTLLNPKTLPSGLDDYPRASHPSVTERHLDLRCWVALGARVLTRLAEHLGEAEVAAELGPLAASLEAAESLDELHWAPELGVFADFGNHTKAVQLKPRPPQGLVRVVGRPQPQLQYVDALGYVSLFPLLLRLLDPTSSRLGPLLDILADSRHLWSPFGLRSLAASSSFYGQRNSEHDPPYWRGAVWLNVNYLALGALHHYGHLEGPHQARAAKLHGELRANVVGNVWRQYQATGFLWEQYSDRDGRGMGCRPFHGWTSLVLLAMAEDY
Description: Alpha-glucosidase I assay (Amplex Red glucose detection, synthetic trisaccharide substrate). The text has this:
Preparation of Human Full-length Glucosidase I: The amino acid sequence for human full-length glucosidase I was obtained from UniProt (Q13724). […] The entry vector was cloned into Kemp Proteins' BacMam Destination vector and transformed into chemically competent DH10Bac E. coli cells to produce recombinant glucosidase I bacmids. Bacmid isolates were obtained following two rounds of blue-white screening and they were transfected into Sf9 cells cultivated in serum-free medium (Thermo Fisher Scientific). Four days post-transfection the culture supernatants containing virus were harvested and filter sterilized. […] A multiplicity of infection (MOI, ratio of virus to cells) of 4 was selected. Soluble glucosidase I was detected by anti-His western blots in the soluble cell extract following extraction with 1% V/V NP40 for 30 minutes at 0° C. Productions and purifications of glucosidase I were carried out at scales ranging from 1-liter to 10-liters. […] In another example production at the 10-liter scale was performed in stirred-tank bioreactors at 27° C. and 80 rpm with dissolved oxygen level at 50% of oxygen in air and pH between 7.0 and 7.2. Cells were transduced at MOI of 4 and the cell pellet was harvested at 48 hours post-transduction using centrifugation.
The pellet from a 10-liter culture was lysed by resuspending the pellet into 1-liter of 50 mM NaH2PO4—H2O+300 mM NaCl+10 mM Imidazole+1 mM PMSF+1% V/V NP40 pH 8. The suspension was incubated on ice for 30 minutes and clarified at 500×g and 4° C. The supernatant was collected and clarified at 20,000×g for 30 minutes at 4° C. and the supernatant was collected and filtered through a 0.2 micron filter. […] The column was washed with 20 column volumes (CV) of 50 mM NaH2PO4-H2O+300 mM NaCl+10 mM Imidazole pH 8 and eluted using a linear gradient of 0-60% 50 mM NaH2PO4-H2O+300 mM NaCl+500 mM Imidazole pH 8 over 90 minutes. at 5 mL per minute. Fractions (25 mL) were collected and analyzed by SDS PAGE and Western Blot (reducing anti-His). Fractions containing purified glucosidase I were pooled and dialyzed into storage buffer (20 mM Tris+300 mM NaCl+50 mM L-arginine+10 mM EDTA+0.01% V/V Tween 80 pH 7.5). The final material was filter sterilized and stored at 4° C. and the working dilution confirmed by a use-test in the indicated assay conditions prior to use.
Alpha-glucosidase I Assay: The assay was performed by incubating recombinant alpha-glucosidase I enzyme with multiple dilutions of test compounds for 60 minutes at 37° C. A synthetic trisaccharide substrate analog was then introduced to the mixture for 90 minutes at 37° C. The reaction was then stopped with 1.5M Tris (pH 8). In the absence of inhibition, the terminal glucose of the substrate was hydrolyzed by the enzyme. The D-glucose product was detected using Amplex Red Glucose/Glucose Oxidase Assay Kit (Invitrogen) following the manufacturer's directions where glucose oxidase reacts with D-glucose to form D-gluconolactone and H2O2 which then reacts with the Amplex Red reagent to generate a red-fluorescent oxidation product (560 nm, excitation; 590 nm, emission). […] Percent inhibition is plotted as a function of concentration for each compound, compared to control reactions. The IC50 was determined using a 4-PL curve fit and serves as a measure of relative inhibitory activity of each test compound (see Table 3).

The target in test [2] is recombinant human GAA (acid alpha-glucosidase) (Homo sapiens, UniProt P10253). Description: Acid alpha-glucosidase (GAA) assay (4-methylumbelliferyl-alpha-D-pyranoside substrate, fluorescence). On the procedure:
Acid alpha-glucosidase (GAA): To analyze inhibitory effects of a test compound, commercially available recombinant human GAA was incubated with multiple dilutions of test compound for 60 minutes at 37° C. 4-methylumbelliferyl-alpha-D-pyranoside was then introduced to the mixture as the substrate. 1,4-methyllumbelliferone is generated, and after an incubation for 20 minutes at 37° C., the reaction was stopped with the stop solution (0.5M glycine 0.3M NaOH pH 10). 1,4-methyllumbelliferone is detected by fluorescence (excitation at 365 nm, emission at 440 nm). Relative fluorescence compared to untreated enzymatic activity and test compound concentration is plotted as a function of percent inhibition. The IC50 is determined using a 4-PL curve fit as the measure of relative inhibitory activity of each test compound (see Table 3).

Test [3] addresses rat sucrase (partially purified alpha-glucosidase from intestinal rat powder) (Rattus norvegicus, UniProt P23739). The test is described as follows: Intestinal alpha-glucosidase assay, sucrose substrate (Glucose GO Kit). As to the method:
Intestinal alpha-glucosidases (rat maltase and sucrase): Intestinal alpha-glucosidases act upon 1,4-alpha-glucoside bonds, breaking down disaccharides to glucose. To perform this assay, partially purified alpha-glucosidase from intestinal rat powder was incubated for 60 minutes at 37° C. with multiple dilutions of test compounds. Maltose or Sucrose respectively was then introduced as substrate to the mixture and incubated for 30 minutes at 37° C. The reaction was stopped by a 5-minute incubation at 90° C. and the resultant glucose production is detected using Sigma's Glucose GO Kit. Percent inhibition was then plotted as a function of concentration for each test compound. The IC50 was determined using a 4-PL curve fit and serves as the measure of relative inhibition of each test compound (see Table 3).

[4] abbreviates: Glucosidase 1, read-out: Glu 1 IC50.

Like-named read-outs stand apart in the source and are kept apart here. Where only a bound is given, the exact number is not on record here.

rat sucrase (partially purified alpha-glucosidase from intestinal rat powder), sequence (P23739 whole entry): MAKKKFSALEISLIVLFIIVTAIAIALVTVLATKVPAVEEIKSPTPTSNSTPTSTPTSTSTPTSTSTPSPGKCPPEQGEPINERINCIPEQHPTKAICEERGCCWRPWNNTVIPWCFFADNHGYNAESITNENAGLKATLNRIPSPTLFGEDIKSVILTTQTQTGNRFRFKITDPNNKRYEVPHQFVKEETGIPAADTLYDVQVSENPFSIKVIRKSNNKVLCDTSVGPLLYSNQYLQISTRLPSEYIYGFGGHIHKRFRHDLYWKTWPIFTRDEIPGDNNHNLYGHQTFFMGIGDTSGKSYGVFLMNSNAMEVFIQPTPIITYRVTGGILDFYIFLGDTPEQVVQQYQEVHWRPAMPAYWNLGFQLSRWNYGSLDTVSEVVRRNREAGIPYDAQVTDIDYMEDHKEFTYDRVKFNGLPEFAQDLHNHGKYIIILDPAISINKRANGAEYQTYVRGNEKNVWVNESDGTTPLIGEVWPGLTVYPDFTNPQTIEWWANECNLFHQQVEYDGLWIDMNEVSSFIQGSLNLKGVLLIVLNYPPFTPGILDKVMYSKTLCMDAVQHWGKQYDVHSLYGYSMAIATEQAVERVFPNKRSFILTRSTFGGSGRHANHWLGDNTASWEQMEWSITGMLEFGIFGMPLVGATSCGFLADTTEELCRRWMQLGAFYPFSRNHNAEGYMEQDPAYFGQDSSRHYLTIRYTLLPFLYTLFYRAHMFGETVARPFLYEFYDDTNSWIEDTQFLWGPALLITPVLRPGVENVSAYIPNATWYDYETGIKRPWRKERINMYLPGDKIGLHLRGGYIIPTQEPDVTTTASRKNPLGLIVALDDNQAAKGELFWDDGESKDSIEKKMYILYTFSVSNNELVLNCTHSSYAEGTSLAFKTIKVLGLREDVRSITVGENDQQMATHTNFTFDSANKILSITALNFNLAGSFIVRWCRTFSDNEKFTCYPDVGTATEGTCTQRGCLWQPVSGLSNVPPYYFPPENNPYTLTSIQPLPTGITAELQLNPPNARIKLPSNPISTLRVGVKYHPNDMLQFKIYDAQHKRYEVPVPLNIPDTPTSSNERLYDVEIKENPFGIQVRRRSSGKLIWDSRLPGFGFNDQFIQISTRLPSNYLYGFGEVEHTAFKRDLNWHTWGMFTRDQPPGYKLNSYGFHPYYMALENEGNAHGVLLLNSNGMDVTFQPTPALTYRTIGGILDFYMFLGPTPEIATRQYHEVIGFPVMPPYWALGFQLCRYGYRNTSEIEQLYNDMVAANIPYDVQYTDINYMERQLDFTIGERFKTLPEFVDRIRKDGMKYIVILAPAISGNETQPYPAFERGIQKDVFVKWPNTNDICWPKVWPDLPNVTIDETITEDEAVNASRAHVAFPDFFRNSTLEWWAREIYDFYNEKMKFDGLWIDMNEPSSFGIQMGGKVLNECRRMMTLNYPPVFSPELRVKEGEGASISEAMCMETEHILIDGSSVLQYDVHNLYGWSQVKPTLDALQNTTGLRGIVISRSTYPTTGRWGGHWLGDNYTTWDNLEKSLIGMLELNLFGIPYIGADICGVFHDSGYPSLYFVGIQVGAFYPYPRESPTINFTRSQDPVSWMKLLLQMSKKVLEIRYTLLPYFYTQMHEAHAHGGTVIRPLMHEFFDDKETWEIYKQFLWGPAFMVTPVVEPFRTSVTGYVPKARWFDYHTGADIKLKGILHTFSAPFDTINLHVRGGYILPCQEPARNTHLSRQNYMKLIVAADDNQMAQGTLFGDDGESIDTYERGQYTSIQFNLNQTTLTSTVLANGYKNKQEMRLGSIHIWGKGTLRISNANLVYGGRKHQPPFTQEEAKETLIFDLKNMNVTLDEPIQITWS

The term IC50 denotes the point on the concentration scale where inhibition reaches its midpoint. In the case of `COCCc1ccc(CCCCCN2C[C@H](O)[C@@H](O)[C@H](O)[C@H]2CO)cc1` [Compound 1307, (2R,3R,4R,5S)-2-(hydroxymethyl)-1-{5-[4-(2-methoxyethyl)phenyl]pentyl}piperidine-3,4,5-triol], the IC50 in test [1] was determined as 1160 nM; in test [2], 950 nM; in test [3], 387 nM.

Consider `COc1cc(NCCc2ccc(CCN3C[C@H](O)[C@@H](O)[C@H](O)[C@H]3CO)cc2)cc(-c2ncccn2)c1` [Compound 1156, (2R,3R,4R,5S)-2-(hydroxymethyl)-1-{2-[4-(2-{[3-methoxy-5-(pyrimidin-2-yl)phenyl]amino}ethyl)phenyl]ethyl}piperidine-3,4,5-triol], for which the IC50 in test [1] (setting [4]) came out at 1270 nM; in test [2] it was 814 nM; in test [3], 610 nM.

In the case of `O=[N+]([O-])c1cc(-c2ccccc2)ccc1NCCCCCCN1C[C@H](O)[C@@H](O)[C@H](O)[C@H]1CO` [Compound 1138, (2R,3R,4R,5S)-2-(hydroxymethyl)-1-[6-({3-nitro-[1,1′-biphenyl]-4-yl}amino)hexyl]piperidine-3,4,5-triol], the IC50 is 115 nM in test [1], below 1 nM in test [2] and below 1 nM in test [3].

For the molecule `OC[C@@H]1[C@@H](O)[C@H](O)[C@@H](O)CN1Cc1ccc(CNc2ccc(N3CCOCC3)cc2)cc1` [Compound 1068], the IC50 in test [1] came to 122 nM; in test [2], 386 nM; in test [3] it was 141 nM.

For the molecule `[N-]=[N+]=Nc1ccc(NCCn2cc(CCN3C[C@H](O)[C@@H](O)[C@H](O)[C@H]3CO)c3ccccc32)c([N+](=O)[O-])c1` [Compound 1177, (2R,3R,4R,5S)-1-[2-(1-{2-[(4-azido-2-nitrophenyl)amino]ethyl}-1H-indol-3-yl)ethyl]-2-(hydroxymethyl)piperidine-3,4,5-triol], the IC50 amounted to 374 nM in test [1] (setting [4]), 5540 nM in test [2] and 883 nM in test [3].

`O=[N+]([O-])c1cc(N2C3CCC2COC3)ccc1NCc1ccc(CN2CC(O)C(O)C(O)C2CO)cc1` (stereo in doubt) [Compound 1018, (2S,3S,4S,5R)-2-(hydroxymethyl)-1-({4-[({2-nitro-4-[(1R,5S)-3-oxa-8-azabicyclo[3.2.1]octan-8-yl]phenyl}amino)methyl]phenyl}methyl) piperidine-3,4,5-triol]: the IC50 in test [1] was below 1 nM; in test [2] it was 44 nM; in test [3], below 1 nM.

Take `[N-]=[N+]=Nc1ccc(NCCc2cncc(CCN3C[C@H](O)[C@@H](O)[C@H](O)[C@H]3CO)n2)c([N+](=O)[O-])c1` [Compound 1187, (2R,3R,4R,5S)-1-[2-(6-{2-[(4-azido-2-nitrophenyl)amino]ethyl}pyrazin-2-yl)ethyl]-2-(hydroxymethyl)piperidine-3,4,5-triol]: the results for the IC50 in test [1], in test [2] and in test [3] were 94 nM, 615 nM and 2050 nM, respectively.

As for `O=[N+]([O-])c1cc(C2CC2)ccc1NCCCCCCN1C[C@H](O)[C@@H](O)[C@H](O)[C@H]1CO` [Compound 1136, (2R,3R,4R,5S)-1-{6-[(4-cyclopropyl-2-nitrophenyl)amino]hexyl}-2-(hydroxymethyl)piperidine-3,4,5-triol], the figures for the IC50 in test [1] (setting [4]), in test [2] and in test [3] were 25 nM, 9 nM and below 1 nM, respectively.

As for `[N-]=[N+]=Nc1ccc(NCCc2cc(CCN3C[C@H](O)[C@@H](O)[C@H](O)[C@H]3CO)cs2)c([N+](=O)[O-])c1` [Compound 1179, (2R,3R,4R,5S)-1-[2-(5-{2-[(4-azido-2-nitrophenyl)amino]ethyl}thiophen-3-yl)ethyl]-2-(hydroxymethyl)piperidine-3,4,5-triol], the values for the IC50 in test [1] (setting [4]), in test [2] and in test [3] were below 1 nM, 692 nM and 181 nM, respectively.

Turning to `COc1cc(NCCc2ccc(CCN3C[C@H](O)[C@@H](O)[C@H](O)[C@H]3CO)cc2)cc(-c2cccnn2)c1` [Compound 1157, (2R,3R,4R,5S)-2-(hydroxymethyl)-1-{2-[4-(2-{[3-methoxy-5-(pyridazin-3-yl)phenyl]amino}ethyl)phenyl]ethyl}piperidine-3,4,5-triol], the results for the IC50 in test [1] (setting [4]), in test [2] and in test [3] were 336 nM, 292 nM and 228 nM, respectively.

As for `O=Cc1cc(-c2ncccn2)ccc1NCCCCCCN1C[C@H](O)[C@@H](O)[C@H](O)[C@H]1CO` [Compound 1184, 5-(pyrimidin-2-yl)-2-({6-[(2R,3R,4R,5S)-3,4,5-trihydroxy-2-(hydroxymethyl)piperidin-1-yl]hexyl}amino)benzaldehyde], the IC50 worked out at 84 nM in test [1] (setting [4]), 48 nM in test [2] and 65 nM in test [3].

On to `CCCc1nc(-c2cc(Cl)cc(NCCc3ccc(CCN4C[C@H](O)[C@@H](O)[C@H](O)[C@H]4CO)cc3)c2)no1` [Compound 1123, (2R,3R,4R,5S)-1-{2-[4-(2-{[3-chloro-5-(5-propyl-1,2,4-oxadiazol-3-yl)phenyl]amino}ethyl)phenyl]ethyl}-2-(hydroxymethyl)piperidine-3,4,5-triol], for which the IC50 in test [1] (setting [4]) was determined as 1360 nM; in test [2], 700 nM; in test [3] it was 2810 nM.

For `CS(=O)(=O)c1cc(NCc2ccc(CN3C[C@H](O)[C@@H](O)[C@H](O)[C@H]3CO)cc2)cc(-c2cccnn2)c1` [Compound 1058, (2R,3R,4R,5S)-2-(hydroxymethyl)-1-{[4-({[3-methanesulfonyl-5-(pyridazin-3-yl)phenyl]amino}methyl)phenyl]methyl}piperidine-3,4,5-triol], the figures for the IC50 in test [1], in test [2] and in test [3] were 21 nM, 78 nM and 46 nM, respectively.
